Here are results for 1 compound from patent US8097761B2, “Process for production of carotenoid” (JX Nippon Oil & Energy Corporation, priority 2006, dated 2012).

The data set is described as follows: Measurement of the concentration of astaxanthin dissolved at room temperature. The data set is classed as physicochemical.

Consider `CC1=C(/C=C/C(C)=C/C=C/C(C)=C/C=C/C=C(C)/C=C/C=C(C)/C=C/C2=C(C)C(=O)[C@@H](O)CC2(C)C)C(C)(C)C[C@H](O)C1=O` [astaxanthin], for which the Concentration dissolved by setting is: (solvent 1,4-dioxane (Ethers), room temperature) 0.3 % (wt./wt.); (solvent Acetone (Ketones), room temperature) 0.02 % (wt./wt.); (solvent Benzene (Hydrocarbons), room temperature) 0.05 % (wt./wt.); (solvent Chloroform (Halogens), room temperature) 0.7 % (wt./wt.); (solvent Cyclohexane (Hydrocarbons), room temperature) 0.001 % (wt./wt.); (solvent Cyclohexanone (Ketones), room temperature) 0.2 % (wt./wt.). Moreover, the Concentration dissolved is recorded as 2.3 % (wt./wt.) (solvent Dichloromethane (Halogens), room temperature); 0.002 % (wt./wt.) (solvent Ethanol (Alcohols), room temperature); 0.003 % (wt./wt.) (solvent Hexane (Hydrocarbons), room temperature); 0.002 % (wt./wt.) (solvent Isopropanol (Alcohols), room temperature); 0.003 % (wt./wt.) (solvent Methanol (Alcohols), room temperature); 0.03 % (wt./wt.) (solvent Methylethylketone (Ketones), room temperature). Moreover, the Concentration dissolved (solvent Methylisobutylketone (Ketones), room temperature) is recorded as 0.02 % (wt./wt.); the Concentration dissolved (solvent Tetrahydrofuran (Ethers), room temperature) is 0.7 % (wt./wt.); the Concentration dissolved (solvent Toluene (Hydrocarbons), room temperature) is 0.03 % (wt./wt.); the Concentration dissolved (solvents other than halogen solvents, room temperature (summary of Table 1)) is not above 1%.
